Measured values taken from patent US20240368668A1, “SUBSTRATES AND BIOMARKERS OF ADAMTS7” (The Broad Institute, Inc., priority 2021, published 2024).
Square brackets hold non-standard residues; d marks the D form. Ends that are not written are not given here. pGlu = O=C1CC[C@@H](C(=O)O)N1

System: mouse ADAMTS7
Experiment: TMT10 TAILS N-terminomics, SMC1 experiment (Ad-mADAMTS7 WT vs EQ vs Luc, technical replicates, trypsin digest)
Assay type: cell-based
Conditions: TAILS neo-N-terminal peptide abundance; log fold change, Ad-mADAMTS7 WT over EQ
Summary of the method: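 Full-length mouse ADAMTS7 (WT or E373Q mutant, C-terminal 3xFLAG) or luciferase was transduced via adenovirus, 50 MOI, into HCA-SMC (SMC1, SMC2) or HUVEC. SMC1: pooled media, technical triplicates 400 ug; SMC2: process triplicates 300 ug; HUVEC: process triplicates 200 ug, bFGF2 10 ng/ml.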

Row | Substance | logFC.mWT.over.mEQ
1 | ACTB_21 (FAGDDAPR; listed as Homo sapiens) | 1.17
2 | ACTB_105 (LTEAPLNPKANR; listed as Homo sapiens) | 2.00
3 | ADAM9_69 (VIQAEGKEHIIHLER; listed as Homo sapiens) | 1.55
4 | AEBP1_37 (FLEGFLSELEPEPR; listed as Homo sapiens) | 3.41
5 | APLP2_579 (ISETPVDVR; listed as Homo sapiens) | 2.00
6 | CCDC80_66 (LEEPNLQPLQR; listed as Homo sapiens) | 3.70
7 | ECM1_134 (FGDQSHPEPESWNAAQHCQQDR; listed as Homo sapiens) | 2.74
8 | EFEMP1_124 (AVAGPEMQTGR; listed as Homo sapiens) | 4.43
9 | EFEMP1_125 (VAGPEMQTGR; listed as Homo sapiens) | 2.25
10 | EFHD2_67 (QGIGEPQSPSR; listed as Homo sapiens) | 0.90
11 | EHBP1L1_298 (TAPTPAPR; listed as Homo sapiens) | 1.23
12 | FBLN2_259 (ALGPPAPVQAKAR; listed as Homo sapiens) | 1.29
13 | FBLN2_260 (LGPPAPVQAKAR; listed as Homo sapiens) | 4.21
14 | FBN1_29 (LEAGNVKETR; listed as Homo sapiens) | 4.49
15 | FBN1_53 (LKGPNVCGSR; listed as Homo sapiens) | 4.93
16 | FLNA_612 (SVEGPSQAKIECDDKGDGSCDVR; listed as Homo sapiens) | 1.69
17 | FLNA_695 (FTVDAKHGGKAPLR; listed as Homo sapiens) | 5.04
18 | FLNA_1285 (LTQTGGPHVKAR; listed as Homo sapiens) | 5.06
19 | FN1_36 (MVQPQSPVAVSQSKPGCYDNGKHYQINQQWER; listed as Homo sapiens) | 3.34
20 | FN1_40 (QSPVAVSQSKPGCYDNGKHYQINQQWER; listed as Homo sapiens) | 4.27
21 | FN1_45 (VSQSKPGCYDNGKHYQINQQWER; listed as Homo sapiens) | 3.20
22 | FN1_47 ([code q]SKPGCYD[code n]GKHYQINQQWER; not fully specified; listed as Homo sapiens) | 2.89
23 | FN1_281 (SGSGPFTDVR; listed as Homo sapiens) | 1.88
24 | FN1_282 (GSGPFTDVR; listed as Homo sapiens) | 3.89
25 | FN1_886 (NQESTPVVIQQETTGTPR; listed as Homo sapiens) | 1.21
26 | FN1_1143 (LTPGVEYVYTIQVLR; listed as Homo sapiens) | 0.86
27 | FN1_1656 (SSSPVTGYR; listed as Homo sapiens) | 1.52

Row | Substance | logFC.mWT.over.mEQ
28 | FN1_1731 (FTDVDVDSIKIAWESPQGQVSR; listed as Homo sapiens) | 2.70
29 | FN1_2143 (FEEHGFR; listed as Homo sapiens) | 1.24
30 | FN1_2217 (FQDTSEYIISCHPVGTDEEPLQFR; listed as Homo sapiens) | 2.27
31 | GALNT2_31 (LAGGAGGGAGR; listed as Homo sapiens) | 1.19
32 | GSN_35 (SQAGAPQGR; listed as Homo sapiens) | 4.37
33 | GSN_413 (HIANVER; listed as Homo sapiens) | 2.19
34 | HEG1_49 (GAGLELQLER; listed as Homo sapiens) | 1.20
35 | HLA−C_52 (VDDTQFVR; listed as Homo sapiens) | 0.78
36 | HSPG2_275 (LLPGSVR; listed as Homo sapiens) | 2.49
37 | HSPG2_1937 (SSAGQQVAR; listed as Homo sapiens) | 0.94
38 | HSPG2_2331 (ANLAYPAGSTQPIR; listed as Homo sapiens) | 2.04
39 | HSPG2_2333 (LAYPAGSTQPIR; listed as Homo sapiens) | 1.92
40 | HSPG2_2688 (VADSGEYVCR; listed as Homo sapiens) | 3.02
41 | HSPG2_3250 (SPLPWQHR; listed as Homo sapiens) | 1.01
42 | HSPG2_3542 (IAHVELADAGQYR; listed as Homo sapiens) | 0.67
43 | HSPG2_3647 ([pGlu]GKVKAFAHLQVPER; listed as Homo sapiens) | 1.22
44 | HSPG2_3672 (SFLPLPTIKDAYR; listed as Homo sapiens) | 1.03
45 | HSPG2_3813 (SSGFIGCVR; listed as Homo sapiens) | 1.09
46 | HSPG2_4004 (SAEPLALGR; listed as Homo sapiens) | 1.25
47 | HSPG2_4021 (LNKDGSLR; listed as Homo sapiens) | 0.73
48 | HSPG2_4075 (GCVGEVSVNGKR; listed as Homo sapiens) | 0.75
49 | HSPG2_4133 (DGFKGDLCEHEENPCQLR; listed as Homo sapiens) | 0.76
50 | HTRA1_33 (LAAGCPDR; listed as Homo sapiens) | 2.78
51 | IFI30_43 (YKTGNLYLR; listed as Homo sapiens) | 3.19
52 | IGFBP3_31 (SAGLGPVVR; listed as Homo sapiens) | 2.49
53 | IGFBP3_32 (AGLGPVVR; listed as Homo sapiens) | 3.78
54 | IGFBP3_200 (FSSESKR; listed as Homo sapiens) | 2.41

Row | Substance | logFC.mWT.over.mEQ
55 | IGFBP7_101 (AAGGPGVSGVCVCKSR; listed as Homo sapiens) | 3.69
56 | LASP1_123 (HEEFEKSR; listed as Homo sapiens) | 1.40
57 | LGALS1_53 (HGDANTIVCNSKDGGAWGTEQR; listed as Homo sapiens) | 3.89
58 | LGALS3BP_447 (FQAPSDYR; listed as Homo sapiens) | 4.13
59 | LOXL1_219 (VASAGVIYPYQPR; listed as Homo sapiens) | 1.09
60 | LOXL2_37 (FQQPAPEYHQPQAPANVAKIQLR; listed as Homo sapiens) | 3.28
61 | LOXL2_38 ([code q]QPAPEYHQPQAPANVAKIQLR; not fully specified; listed as Homo sapiens) | 1.26
62 | LOXL2_318 (AYKPEQPLVR; listed as Homo sapiens) | 0.78
63 | LOX_58 (LSLGSQYQPQR; listed as Homo sapiens) | 0.99
64 | LOX_80 (ANASAQQPR; listed as Homo sapiens) | 2.18
65 | LOX_81 (NASAQQPR; listed as Homo sapiens) | 1.69
66 | LOX_123 (HWFQAGYSTSR; listed as Homo sapiens) | 1.82
67 | LOX_124 (WFQAGYSTSR; listed as Homo sapiens) | 3.62
68 | LOX_126 (QAGYSTSR; listed as Homo sapiens) | 1.59
69 | LTBP1_393 (LTATNFR; listed as Homo sapiens) | 3.89
70 | LTBP1_494 (SVQIHQVSR; listed as Homo sapiens) | 2.63
71 | LTBP1_540 (HQQVIPHVYPVAAKTQLGR; listed as Homo sapiens) | 2.70
72 | LTBP1_546 (HVYPVAAKTQLGR; listed as Homo sapiens) | 4.67
73 | LTBP2_485 (SVQIHQVAQVR; listed as Homo sapiens) | 2.23
74 | LTBP2_533 (SGEPPRPLPPAAPR; listed as Homo sapiens) | 1.06
75 | LTBP2_677 (SLGPGTCTLPLAQR; listed as Homo sapiens) | 0.85
76 | LTBP2_760 (SSGALPGPAER; listed as Homo sapiens) | 1.24
77 | LTBP2_1023 (GKCTNLEGSFR; listed as Homo sapiens) | 0.71
78 | LTBP2_1371 (SGQKGHAPCSSVLGR; listed as Homo sapiens) | 0.93
79 | LTBP2_1560 (TTYTECCCQDGEAWSQQCALCPPR; listed as Homo sapiens) | 0.71
80 | LTBP2_1584 (SSEVYAQLCNVAR; listed as Homo sapiens) | 1.08
